Data reported in US20050032743A1, “Compositions and method for steroid homeostasis” (priority 2002, published 2005).
Several values for one entry are separate records, joined by “and”; a condition that tells them apart may be missing. Equal values may be shown once.

How the values were obtained:
[1] = tested on: Vitamin D deficient Sprague Dawley rats; assay: Effect of calcium fructoborate on bone density in vitamin D deficient rats; assay type: in vivo
Method: Vitamin D deficient Sprague Dawley rats (21 days old) were divided into three groups and fed a regulated vitamin D deficient diet (0.47% Ca, 0.3% P) over a period of 9 weeks. The diet of the first group was supplemented with calcium fructoborate at 30 mcg/gm, the diet of the second group was supplemented with calcium fructoborate at 185 mcg/gm, and the diet of the third group was left unchanged as a control group. At the end of the test period animals of all three groups were evaluated for increase in vitamin D levels and increase in bone density.

[2] = tested on: serum/plasma concentrations of testosterone, 25-hydroxy vitamin D, and dehydroepiandrosterone; assay: Effect of calcium fructoborate on selected steroids in healthy volunteers; assay type: in vivo, human; conditions: for DHEA (dehydroepiandrosterone serum/plasma concentration) / TES (Testosterone serum/plasma concentration) / VITD (Vitamin D serum/plasma concentration): individual volunteer
Method: A group of healthy volunteers was given after obtaining their informed consent a daily oral dose of 6 mg Calcium fructoborate (as prepared in Example 1 above) for a period of 60 days, and the serum/plasma concentrations of testosterone, 25-hydroxy vitamin D, and dehydroepiandrosterone was determined in an independent clinical laboratory. Table 1 below summarizes the results in which TES refers to ng/ml Testosterone, DHEA refers to mcg/ml dehydroepiandrosterone, and VITD refers to ng/ml Vitamin D. The first number is the serum/plasma concentration at the beginning of the trial while the second number is the serum/plasma concentration after 60 days.

[3] = severely vitamin D deficient rats, 9 weeks
[4] = after 60 days of daily oral 6 mg (second number)
[5] = at the beginning of the trial (first number)
[6] = daily oral 6 mg, 60 days, four volunteers

## calcium fructoborate
[1]; first test group, diet supplemented at 30 mcg/gm, 9 weeks
  bone ash increase over the control: 1.4%
[1]; second test group, diet supplemented at 185 mcg/gm, 9 weeks
  bone ash increase over the control: 5.8%
[1]; [3]
  conservation or biosynthesis of vitamin D: did not conserve or promote biosynthesis of vitamin D
  growth of the animals: failed to promote growth of the animals
  raising the serum calcium concentration above the control: failed
[1]; under vitamin D deficiency conditions
  bone density: increased the bone density
[2]; [4]
  DHEA (dehydroepiandrosterone serum/plasma concentration): 2.1 mcg/ml (2×) and 4.1 mcg/ml and 2.95 mcg/ml
  TES (Testosterone serum/plasma concentration): 14.1 ng/mL and 8.2 ng/mL and 7.8 ng/mL and 8.0 ng/mL
  VITD (Vitamin D serum/plasma concentration): 9.9 ng/mL and 16.1 ng/mL and 15.8 ng/mL and 12.0 ng/mL
[2]; [5]
  DHEA (dehydroepiandrosterone serum/plasma concentration): 1.9 mcg/ml (2×) and 3.5 mcg/ml and 2.75 mcg/ml
  TES (Testosterone serum/plasma concentration): 11.9 ng/ml and 6.3 ng/ml and 6.2 ng/ml (2×)
  VITD (Vitamin D serum/plasma concentration): 7.9 ng/mL and 12.1 ng/mL and 11.8 ng/mL and 9.3 ng/mL
[2]; daily oral 6 mg, 60 days
  serum/plasma concentration of various steroids: significantly increased
[2]; [6]
  Average increase DHEA: 11%
  Average increase TES: 25%
  Average increase VITD: 28%
